Values quoted from earlier work, collected in patent US20250213580A1, “Improved Thiopurine Formulation and Treatment Methods” (Douglas Pharmaceuticals Ltd, priority 2022, published 2025).
Like-named read-outs stand apart in the source and are kept apart here.

Test system: spontaneous colitis in a mouse model
Settings: intra-rectal administration

| Structure (SMILES) | effect on colitis (within 14 days, distal colon) | effect on colitis (mid-colon or proximal colon) |
| --- | --- | --- |
| S=c1nc[nH]c2nc[nH]c12 [Formulation 6-MP, 3,7-dihydropurine-6-thione] | did not provide any significant improvement in colitis | – |
| Nc1nc(=S)c2[nH]cnc2[nH]1 [Formulation 6-TG, 2-amino-6,7-dihydro-3H-purine-6-thione] | ameliorated spontaneous colitis | no improvement in colitis |
